Reference: ChEMBL document CHEMBL1201862, “PubChem BioAssay data set” (2004)
Calls of active or inactive are those of the source.

Key:
Mu-type opioid receptor = Mu-type opioid receptor (Homo sapiens, UniProt P35372); type: functional, cell-based;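 also: U2OS cells with beta-arrestin recruitment to OPRM1 by beta-gal complementation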
[1] = target: 5-hydroxytryptamine receptor 2A (Mus musculus, UniProt P35363); type: functional, cell-based;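 also: CHO-K1 cells with tagged receptor and beta-arrestin; agonist potency measured as compound-induced activation of the receptor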
Chain of 5-hydroxytryptamine receptor 2A (P35363 whole entry): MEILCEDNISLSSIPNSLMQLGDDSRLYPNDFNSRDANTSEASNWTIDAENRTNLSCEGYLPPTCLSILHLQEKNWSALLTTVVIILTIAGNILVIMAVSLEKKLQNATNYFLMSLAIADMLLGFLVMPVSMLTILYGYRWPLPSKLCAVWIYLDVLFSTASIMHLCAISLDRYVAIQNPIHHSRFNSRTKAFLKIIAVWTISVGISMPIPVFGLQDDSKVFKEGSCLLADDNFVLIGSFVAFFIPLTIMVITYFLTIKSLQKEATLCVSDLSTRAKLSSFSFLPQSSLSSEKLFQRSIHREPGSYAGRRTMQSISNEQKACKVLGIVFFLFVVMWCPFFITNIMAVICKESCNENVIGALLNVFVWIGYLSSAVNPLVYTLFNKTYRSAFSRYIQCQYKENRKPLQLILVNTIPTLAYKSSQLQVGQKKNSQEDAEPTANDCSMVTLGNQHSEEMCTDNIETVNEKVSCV

[2] = inhibitors of intracellular T. cruzi replication, confirmation, NIH3T3 host cells, beta-gal luminescence (AID 2044); type: functional, cell-based;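 also: intracellular parasites grown in NIH/3T3 mouse fibroblasts as host cells; luminescent beta-galactosidase reporter signal from transgenic T. cruzi replicating inside host cells; inhibitors lower the luminescence signal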
[3] = HepG2 cell cytotoxicity, dose response, cytotoxicity control for Shn3 inhibitor project, CellTiter-Glo, cherry-picked (AID 624134); type: functional, cell-based
[4] = Luminescence Cell-Based Dose Retest to Confirm Inhibitors of Cancer Stem Cells. [Related pubchem assays (depositor defined):AID2717, AID2721]; type: functional; settings: Homo sapiens
[5] = control 3'UTR Renilla luciferase suppression, dose response, counter-screen for Shn3 inhibitor project, cell-based, Clone20-Shn3RL, cherry-picked (AID 624133); type: functional
[6] = Shn3 3'UTR reporter inhibitors, dose response, cell-based, Clone20 osteoblasts, firefly luciferase, cherry-picked (AID 624132); type: functional;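 also: firefly luciferase luminescence from reporter carrying the Shn3 3'UTR in osteoblasts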
[7] = target: T1, Short transient receptor potential channel 4 (Mus musculus, UniProt Q9QUQ5); experiment: mouse TRPC4 channel activators, dose response, cell-based, HEK293 TRPC4/mu-opioid, Fluo-4 calcium (AID 434937); type: functional
T1 sequence (Q9QUQ5 whole entry): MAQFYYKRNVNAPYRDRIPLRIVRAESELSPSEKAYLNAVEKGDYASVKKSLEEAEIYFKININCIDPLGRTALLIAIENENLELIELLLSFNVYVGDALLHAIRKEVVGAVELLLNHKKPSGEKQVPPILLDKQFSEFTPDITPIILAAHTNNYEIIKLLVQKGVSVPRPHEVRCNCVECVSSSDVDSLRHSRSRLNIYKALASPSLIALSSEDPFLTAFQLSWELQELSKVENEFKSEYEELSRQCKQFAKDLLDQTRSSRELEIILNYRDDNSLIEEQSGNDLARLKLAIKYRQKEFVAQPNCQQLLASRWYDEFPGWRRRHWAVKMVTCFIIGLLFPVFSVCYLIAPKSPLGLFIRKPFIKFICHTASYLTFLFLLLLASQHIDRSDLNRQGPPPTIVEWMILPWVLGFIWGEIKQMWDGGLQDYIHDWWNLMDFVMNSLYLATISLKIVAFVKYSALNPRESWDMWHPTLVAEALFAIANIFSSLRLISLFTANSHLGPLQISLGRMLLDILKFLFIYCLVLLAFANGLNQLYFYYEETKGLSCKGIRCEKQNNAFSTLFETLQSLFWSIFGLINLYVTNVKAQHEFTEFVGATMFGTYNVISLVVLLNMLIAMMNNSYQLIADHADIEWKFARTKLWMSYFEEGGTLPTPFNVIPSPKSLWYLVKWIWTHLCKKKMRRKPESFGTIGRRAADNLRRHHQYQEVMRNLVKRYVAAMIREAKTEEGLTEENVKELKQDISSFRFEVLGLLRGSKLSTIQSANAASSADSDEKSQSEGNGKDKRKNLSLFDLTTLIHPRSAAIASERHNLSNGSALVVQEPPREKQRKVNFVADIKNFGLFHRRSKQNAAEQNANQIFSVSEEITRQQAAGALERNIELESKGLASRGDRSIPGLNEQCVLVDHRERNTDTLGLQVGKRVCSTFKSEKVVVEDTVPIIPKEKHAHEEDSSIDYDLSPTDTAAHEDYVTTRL

[8] = target: T2, Rac GTPase-activating protein 1 (Homo sapiens, UniProt Q9H0H5); experiment: MgcRacGAP GTPase-activating activity inhibitors, confirmation, biochemical, ADP Hunter fluorescence, primary and confirmatory (AID 624330); type: functional
T2 sequence (Q9H0H5 whole entry): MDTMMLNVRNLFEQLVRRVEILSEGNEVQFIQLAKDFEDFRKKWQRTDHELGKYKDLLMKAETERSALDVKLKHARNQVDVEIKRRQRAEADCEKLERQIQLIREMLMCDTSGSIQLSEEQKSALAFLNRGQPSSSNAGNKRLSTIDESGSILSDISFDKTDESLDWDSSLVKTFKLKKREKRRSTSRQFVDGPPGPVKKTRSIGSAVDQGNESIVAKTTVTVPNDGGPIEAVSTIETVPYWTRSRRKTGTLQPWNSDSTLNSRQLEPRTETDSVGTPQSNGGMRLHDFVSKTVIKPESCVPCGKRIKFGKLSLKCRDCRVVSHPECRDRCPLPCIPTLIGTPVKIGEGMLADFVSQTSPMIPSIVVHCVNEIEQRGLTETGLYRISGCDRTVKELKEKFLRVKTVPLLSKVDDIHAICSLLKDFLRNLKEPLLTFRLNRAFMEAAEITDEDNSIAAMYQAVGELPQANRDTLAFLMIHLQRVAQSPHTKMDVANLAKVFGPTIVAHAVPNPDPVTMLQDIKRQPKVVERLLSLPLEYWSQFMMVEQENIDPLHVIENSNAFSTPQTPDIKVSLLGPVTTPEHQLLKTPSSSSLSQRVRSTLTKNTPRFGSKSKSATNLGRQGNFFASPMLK

[9] = cytotoxicity toward NIH3T3 fibroblasts, dose response, counter-screen, cell-based, ATP luminescence, mouse fibroblasts (AID 2010); type: functional;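 also: cells exposed to compound for about 90 hours before reading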
[10] = HeLa cell cytotoxicity, dose response, cytotoxicity control for MgcRacGAP inhibitor project (AID 624300); type: functional
[11] = target: T3, Fructose-bisphosphate aldolase (Mycobacterium tuberculosis, UniProt P9WQA3); experiment: Fluorescence-based biochemical high throughput dose response assay for inhibitors of the fructose-bisphosphate aldolase (FBA) of M. tuberculosis.; type: functional
T3 sequence (P9WQA3 whole entry): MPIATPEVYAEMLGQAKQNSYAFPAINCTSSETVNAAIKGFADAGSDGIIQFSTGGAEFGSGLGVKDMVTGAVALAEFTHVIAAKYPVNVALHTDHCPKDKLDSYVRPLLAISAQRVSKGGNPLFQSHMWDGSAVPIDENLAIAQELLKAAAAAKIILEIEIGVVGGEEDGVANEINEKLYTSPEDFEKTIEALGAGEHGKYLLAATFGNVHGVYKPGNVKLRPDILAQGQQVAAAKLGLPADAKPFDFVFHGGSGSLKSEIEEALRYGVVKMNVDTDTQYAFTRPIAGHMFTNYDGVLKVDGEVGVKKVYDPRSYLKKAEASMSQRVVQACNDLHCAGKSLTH

Beta-galactosidase = Beta-galactosidase (Escherichia coli, UniProt Q8VNN2); experiment: Dose response counterscreen for EBI2 assay utilizing the enzyme, b-galactosidase.; type: functional
Chain of Beta-galactosidase (Q8VNN2 whole entry, the tested form may be a part): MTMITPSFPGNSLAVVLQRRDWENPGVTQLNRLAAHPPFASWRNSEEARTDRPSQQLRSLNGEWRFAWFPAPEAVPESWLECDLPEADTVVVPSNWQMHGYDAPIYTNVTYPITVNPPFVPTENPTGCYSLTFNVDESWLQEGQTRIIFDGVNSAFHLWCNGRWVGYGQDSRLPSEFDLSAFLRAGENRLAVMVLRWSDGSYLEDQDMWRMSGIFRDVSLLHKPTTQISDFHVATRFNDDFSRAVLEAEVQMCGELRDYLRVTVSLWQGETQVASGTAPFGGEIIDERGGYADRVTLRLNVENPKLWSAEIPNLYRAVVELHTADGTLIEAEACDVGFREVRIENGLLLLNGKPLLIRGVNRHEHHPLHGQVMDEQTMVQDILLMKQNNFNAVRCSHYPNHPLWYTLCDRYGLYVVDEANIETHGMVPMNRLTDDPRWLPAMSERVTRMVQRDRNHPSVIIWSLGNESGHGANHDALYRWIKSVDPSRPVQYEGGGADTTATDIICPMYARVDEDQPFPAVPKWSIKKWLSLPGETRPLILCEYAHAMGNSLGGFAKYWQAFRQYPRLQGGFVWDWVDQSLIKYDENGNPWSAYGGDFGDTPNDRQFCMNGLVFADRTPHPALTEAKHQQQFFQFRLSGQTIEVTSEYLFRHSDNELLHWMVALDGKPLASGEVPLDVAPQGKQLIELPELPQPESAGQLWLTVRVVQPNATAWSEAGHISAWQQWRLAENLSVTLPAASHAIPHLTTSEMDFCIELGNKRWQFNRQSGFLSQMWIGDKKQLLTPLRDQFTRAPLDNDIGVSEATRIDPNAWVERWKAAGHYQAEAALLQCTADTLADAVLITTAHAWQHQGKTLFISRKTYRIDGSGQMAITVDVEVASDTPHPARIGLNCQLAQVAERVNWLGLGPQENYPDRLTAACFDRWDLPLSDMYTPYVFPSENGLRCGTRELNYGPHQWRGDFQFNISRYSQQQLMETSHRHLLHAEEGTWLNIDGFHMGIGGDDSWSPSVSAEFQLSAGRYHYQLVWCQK

[12] = target: T4, Oxysterols receptor LXR-beta (Homo sapiens, UniProt P55055); type: functional, cell-based;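 also: agonist activity at LXR measured by a cell-based luminescence readout across a dose range, run as a counterscreen for daf-12 agonists; HEK293 cells with Gal4-LXR fusion and GAL4-driven luciferase reporter; potency for activation of Gal4-LXR reporter so compounds are agonists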
T4 sequence (P55055 whole entry): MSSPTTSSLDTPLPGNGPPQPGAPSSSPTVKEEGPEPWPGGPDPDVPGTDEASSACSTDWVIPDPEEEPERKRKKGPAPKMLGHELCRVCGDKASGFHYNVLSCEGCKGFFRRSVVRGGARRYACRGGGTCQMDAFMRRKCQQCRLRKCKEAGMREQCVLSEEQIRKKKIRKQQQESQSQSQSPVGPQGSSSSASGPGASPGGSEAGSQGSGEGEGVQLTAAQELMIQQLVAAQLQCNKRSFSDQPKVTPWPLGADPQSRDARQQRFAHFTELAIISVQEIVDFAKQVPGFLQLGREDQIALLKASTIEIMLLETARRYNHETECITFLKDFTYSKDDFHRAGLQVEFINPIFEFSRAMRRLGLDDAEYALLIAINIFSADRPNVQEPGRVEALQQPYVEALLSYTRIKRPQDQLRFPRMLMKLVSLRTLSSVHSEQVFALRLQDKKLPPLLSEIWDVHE

[13] = microbe, parasite or virus in culture; type: functional; settings: Mycobacterium tuberculosis
[14] = THP-1 cell cytotoxicity, dose response, cytotoxicity control for non-replicating M. tuberculosis project (AID 489025); type: functional
[15] = ZM109 Env clade C HIV-1 fusion inhibitors, dose response, HeLa effector, CEM target cells, luciferase, cherry-pick (AID 652058); type: functional, cell-based
[16] = inhibitors of clade B AD8 Env fusion, dose response, cell-based, cherry-pick (AID 652062); type: functional;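 also: luciferase signal from cell-cell fusion driven by HIV-1 clade B AD8 Env; potency is for inhibitors of fusion seen as a drop in luminescence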
[17] = off-target signal loss in HeLa-CEM21 co-culture – HeLa F-luc CTL cells, cherry-picked, counter-screen for HIV-1 Env fusion inhibitor project, dose response (AID 652040); type: functional, cell-based;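 also: potency for signal decrease marking cytotoxic or nonspecific inhibition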
[18] = CEM21 lymphoblast cell cytotoxicity, dose response, cytotoxicity control for viral fusion inhibitor project, CellTiter-Glo luminescence, cherry-picked (AID 652042); type: functional, cell-based;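 also: potency for signal decrease meaning cytotoxicity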
[19] = inhibitors of HIV Env-driven cell fusion, dose response, cherry-pick (AID 652057); type: functional, cell-based
[20] = target: T5, Trace amine-associated receptor 1 (Homo sapiens, UniProt Q96RJ0); experiment: Counterscreen for agonists of the human trace amine associated receptor 1 (hTAAR1): Fluorescence-based cell-based high throughput dose response assay to identify hTAAR1 agonist that also desensitize TAAR1 receptor response.; type: functional
T5 sequence (Q96RJ0 whole entry): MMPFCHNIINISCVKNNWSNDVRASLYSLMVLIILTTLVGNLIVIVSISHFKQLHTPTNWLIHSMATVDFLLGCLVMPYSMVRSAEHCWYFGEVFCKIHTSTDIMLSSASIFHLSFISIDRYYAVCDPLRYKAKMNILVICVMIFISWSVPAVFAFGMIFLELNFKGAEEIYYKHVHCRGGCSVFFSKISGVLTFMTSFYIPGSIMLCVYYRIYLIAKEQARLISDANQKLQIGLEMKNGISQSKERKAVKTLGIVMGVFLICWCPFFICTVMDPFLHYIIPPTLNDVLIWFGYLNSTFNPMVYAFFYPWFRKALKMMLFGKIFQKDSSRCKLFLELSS

cells [21] = type: functional, cell-based
[22] = target: T5, Trace amine-associated receptor 1; experiment: Fluorescence-based cell-based high throughput dose response assay to identify agonists of the human trace amine associated receptor 1 (TAAR1).; type: functional
cells [23] = type: functional, cell-based; remark: listed apart in the source
[24] = intracellular Trypanosoma cruzi inhibitors in host cells – cell-based, plate reader, cherry-pick samples, set 3, dose response (AID 651818); type: functional;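 also: compounds incubated with infected cells for about four days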
[25] = P. falciparum Dd2 growth inhibitors, dose response, SYBR Green, dry powder samples, set 9 (AID 1159568); type: functional, cell-based
[26] = target: Induced myeloid leukemia cell differentiation protein Mcl-1 (Homo sapiens, UniProt Q07820); type: functional
Chain of Induced myeloid leukemia cell differentiation protein Mcl-1 (Q07820 whole entry): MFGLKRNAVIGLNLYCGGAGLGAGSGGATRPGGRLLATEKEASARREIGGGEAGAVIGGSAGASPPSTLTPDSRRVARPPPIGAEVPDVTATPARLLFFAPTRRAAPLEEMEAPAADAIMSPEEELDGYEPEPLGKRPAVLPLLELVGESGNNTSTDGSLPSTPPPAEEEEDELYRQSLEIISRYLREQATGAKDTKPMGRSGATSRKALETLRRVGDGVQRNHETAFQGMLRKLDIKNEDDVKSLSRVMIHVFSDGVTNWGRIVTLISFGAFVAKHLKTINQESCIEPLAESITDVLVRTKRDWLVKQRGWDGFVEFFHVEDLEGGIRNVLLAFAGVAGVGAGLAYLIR

Chain of Mu-type opioid receptor (P35372 whole entry): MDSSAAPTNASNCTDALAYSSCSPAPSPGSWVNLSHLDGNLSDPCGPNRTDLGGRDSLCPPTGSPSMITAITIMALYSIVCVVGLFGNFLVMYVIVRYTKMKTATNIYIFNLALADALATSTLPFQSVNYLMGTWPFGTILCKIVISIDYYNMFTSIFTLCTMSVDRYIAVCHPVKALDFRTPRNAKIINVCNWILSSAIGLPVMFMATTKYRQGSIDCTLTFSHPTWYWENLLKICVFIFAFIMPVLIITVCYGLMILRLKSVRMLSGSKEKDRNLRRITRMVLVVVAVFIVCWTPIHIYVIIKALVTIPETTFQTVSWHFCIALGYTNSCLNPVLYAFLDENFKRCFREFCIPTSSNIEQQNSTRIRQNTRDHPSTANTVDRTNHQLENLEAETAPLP

Oc1ccc(CN2CCN(c3ncccn3)CC2)cc1
EC50 (Mu-type opioid receptor): 92.4 µM (inactive) | EC50 [1]: 0.496 µM (active)

COc1ccc(CN2CCC(N(CCc3ccccc3)Cc3ccccc3)CC2)c(OC)c1
EC50 [2]: 1.49 µM (active) | AC50 [3]: 13.6 µM (active) | AC50 [4]: 5.9 µM (active) | AC50 [5]: 8.85 µM (active) | AC50 [6]: 8.1 µM (active) | EC50 [7]: 5.31 µM (active) | IC50 [8]: 96.6 µM (active) | EC50 [9]: > 60 µM (inconclusive) | CC50 [10]: 56.3 µM (active)

CCOC(=O)N1CCN(CC(O)COC2CC(C)CCC2C(C)C)CC1 (stereo unspecified)
IC50 [11]: > 9.99 µM (inactive)

CCOC(=O)C1(CCOc2ccccc2)CCN(C(=O)c2ccc(-n3cccn3)cc2)CC1
IC50 (Beta-galactosidase): > 80 µM (inactive)

COc1cc2c(cc1NC(=S)NC(=O)/C=C/c1ccco1)oc1ccccc12
IC50 (Beta-galactosidase): > 80 µM (inactive)

O=C(COc1ccc(Br)cc1)N1CCN(Cc2ccc3c(c2)OCO3)CC1
IC50 (Beta-galactosidase): > 80 µM (inactive)

Cc1ccnc(NC(=O)CCNS(=O)(=O)c2ccc(C)c(C)c2)c1
EC50 [12]: > 67.6 µM (inactive)

O=C(c1cccc(C(=O)N(c2ccccn2)C2CCCCC2)c1)N(c1ccccn1)C1CCCCC1
EC50 (Mu-type opioid receptor): 92.5 µM (inactive) | EC50 [1]: 76.1 µM (inactive)

Cc1ccc(C(=O)CC(SCC(=O)O)c2ccc([N+](=O)[O-])cc2)cc1 (stereo unspecified)
CC50 [13]: 30.6 µM (active)

Cc1cc(OCCOCCNCc2ccccc2)ccc1C(C)C
CC50 [14]: > 40 µM (active) | AC50 [15]: 1.86 µM (active) | AC50 [16]: 4.8 µM (active) | AC50 [17]: 2.26 µM (active) | AC50 [18]: 45.2 µM (active) | AC50 [19]: 1.55 µM (active)

COc1ccc(C2Nc3ccccc3C(=O)N2NS(C)(=O)=O)c(OC)c1 (stereo unspecified)
IC50 [11]: > 1.11 µM (active)

COc1cccc(-n2cc(CNCc3cn(C)nc3-c3ccccc3F)cn2)c1
EC50 (Mu-type opioid receptor): 92.5 µM (inactive) | EC50 [1]: 0.772 µM (active)

CCCC[C@@H]1CNCCN1CCc1cccc2ccccc12
IC50 [20]: 3.52 µM (active) | IC50 (cells [21]): > 29.9 µM (inactive) | EC50 [22]: 4.01 µM (active) | EC50 (cells [23]): > 29.9 µM (inactive)

O=[N+]([O-])c1ccc2c(c1)Nc1nc3ccccc3nc1N2
EC50 [12]: > 67.5 µM (inactive)

CN(C)C=O.O=C(/C=C/c1cccc(F)c1)Nc1ccc(S(=O)(=O)Nc2ncccn2)cc1
IC50 [11]: > 9.99 µM (inactive)

C[C@@H]1CN([C@@H](C)CO)C(=O)c2cccc(NC(=O)c3ccc(-c4nccs4)cc3)c2O[C@H]1CN(C)C(=O)Nc1ccc(C(F)(F)F)cc1
AC50 [24]: 3.55 µM (active) | AC50 [25]: 6.3 µM (active)

Nc1sc2c(c1C(=O)NCCc1ccccc1)CCCC2
IC50 [20]: 4.88 µM (active) | IC50 (cells [21]): > 29.9 µM (inactive) | EC50 [22]: 1.35 µM (active) | EC50 (cells [23]): > 29.9 µM (inactive)

O=C(C[C@H]1C[C@@H]2c3cc(NC(=O)c4ccc5c(c4)OCO5)ccc3O[C@@H]2[C@@H](CO)O1)NCc1ccc(Oc2ccccc2)cc1
AC50 [25]: 28.6 µM (active)

Clc1cccc(N/N=C/c2ccc(N3CCOCC3)s2)c1
IC50 [8]: 71.3 µM (active) | IC50 [26]: 13.4 µM (active) | CC50 [10]: 83.7 µM (active)

C/C(=N/NC(=O)c1cc(C(C)C)n[nH]1)c1cccs1
EC50 [12]: > 67.6 µM (inactive)

CN(C)c1ccc2c(c1)[C@@H]1C[C@@H](CC(=O)NC3CCCCC3)O[C@@H](CO)[C@@H]1O2
AC50 [25]: 20.2 µM (active)
